In the supplement of paper PMC10307832:

What was measured:
Experiment in all cases: relative viability (nuclei count vs DMSO), 5 days (fraction); higher = more cells survive
Alpelisib + Pictilisib = compound: Cc1nc(NC(=O)N2CCC[C@H]2C(N)=O)sc1-c1ccnc(C(C)(C)C(F)(F)F)c1 [Alpelisib] + CS(=O)(=O)N1CCN(Cc2cc3nc(-c4cccc5[nH]ncc45)nc(N4CCOCC4)c3s2)CC1 [Pictilisib] (partner 1 µM)
Outline: (§1)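 Lung cancer cell lines in 1536-well plates were dosed by pin tool the day after seeding, either with one drug alone or with a fixed anchor-drug dose plus five library-drug doses (not always all listed) in √10 steps. After 5 days, cells were fixed and their nuclei stained in one step (final 0.05% Triton X-100, 1% formaldehyde, 1 ug/ml Hoechst), then counted on 4× images. Relative viability is the nuclei count in treated wells divided by that in vehicle wells. Values are medians of duplicate plates.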

Alpelisib + Palbociclib = compound: Cc1nc(NC(=O)N2CCC[C@H]2C(N)=O)sc1-c1ccnc(C(C)(C)C(F)(F)F)c1 [Alpelisib] + CC(=O)c1c(C)c2cnc(Nc3ccc(N4CCNCC4)cn3)nc2n(C2CCCC2)c1=O [Palbociclib] (partner 0.5 µM)
Outline: as §1

Alpelisib + Tozasertib = compound: Cc1nc(NC(=O)N2CCC[C@H]2C(N)=O)sc1-c1ccnc(C(C)(C)C(F)(F)F)c1 [Alpelisib] + Cc1cc(Nc2cc(N3CCN(C)CC3)nc(Sc3ccc(NC(=O)C4CC4)cc3)n2)n[nH]1 [Tozasertib] (partner 0.1 µM)
Outline: as §1

OSI-027 + Crizotinib = compound: COc1cccc2cc(-c3nc([C@H]4CC[C@H](C(=O)O)CC4)n4ncnc(N)c34)[nH]c12 [OSI-027] + C[C@@H](Oc1cc(-c2cnn(C3CCNCC3)c2)cnc1N)c1c(Cl)ccc(F)c1Cl [Crizotinib] (partner 1 µM)
Outline: as §1

Row | Cell Line | relative viability (Alpelisib + Pictilisib; first compound 0.04 µM) | relative viability (Alpelisib + Pictilisib; first compound 0.1265 µM) | relative viability (Alpelisib + Pictilisib; first compound 0.4 µM) | relative viability (Alpelisib + Pictilisib; first compound 1.265 µM) | relative viability (Alpelisib + Pictilisib; first compound 4 µM) | relative viability (Alpelisib + Palbociclib; first compound 0.04 µM) | relative viability (Alpelisib + Palbociclib; first compound 0.1265 µM) | relative viability (Alpelisib + Palbociclib; first compound 0.4 µM) | relative viability (Alpelisib + Palbociclib; first compound 1.265 µM) | relative viability (Alpelisib + Palbociclib; first compound 4 µM) | relative viability (Alpelisib + Tozasertib; first compound 0.04 µM) | relative viability (Alpelisib + Tozasertib; first compound 0.1265 µM) | relative viability (Alpelisib + Tozasertib; first compound 0.4 µM) | relative viability (Alpelisib + Tozasertib; first compound 1.265 µM) | relative viability (Alpelisib + Tozasertib; first compound 4 µM) | relative viability (OSI-027 + Crizotinib; first compound 0.01 µM) | relative viability (OSI-027 + Crizotinib; first compound 0.03162 µM) | relative viability (OSI-027 + Crizotinib; first compound 0.1 µM) | relative viability (OSI-027 + Crizotinib; first compound 0.3162 µM) | relative viability (OSI-027 + Crizotinib; first compound 1 µM)
1 | NCI-H1650 | 0.625 | 0.488 | 0.631 | 0.595 | 0.494 | 0.423 | 0.275 | 0.403 | 0.29 | 0.298 | 0.464 | 0.287 | 0.375 | 0.332 | 0.36 | 1.13 | 0.999 | 0.886 | 1.2 | 0.531
2 | NCI-H1651 | 0.606 | 0.596 | 0.638 | 0.547 | 0.644 | 0.512 | 0.514 | 0.594 | 0.483 | 0.484 | 0.636 | 0.651 | 0.708 | 0.653 | 0.607 | 0.878 | 0.801 | 0.841 | 0.816 | 0.635
3 | NCI-H1666 | 0.508 | 0.459 | 0.536 | 0.479 | 0.344 | 0.681 | 0.606 | 0.693 | 0.571 | 0.493 | 0.668 | 0.63 | 0.636 | 0.519 | 0.528 | 1 | 1.09 | 0.754 | 0.76 | 0.524
4 | NCI-H1734 | 0.472 | 0.427 | 0.494 | 0.397 | 0.343 | 0.307 | 0.282 | 0.373 | 0.263 | 0.227 | 0.289 | – | 0.299 | 0.224 | 0.205 | 0.618 | 0.509 | 0.731 | 0.599 | 0.394
5 | NCI-H1755 | 0.451 | 0.309 | 0.427 | 0.456 | 0.363 | 0.417 | 0.41 | 0.458 | 0.371 | 0.382 | 0.615 | 0.508 | 0.629 | 0.438 | 0.434 | 0.915 | 0.771 | 0.872 | 0.748 | 0.421
6 | NCI-H1915 | 0.925 | 0.987 | 1.02 | 0.908 | 0.766 | 0.555 | 0.531 | 0.573 | 0.474 | 0.471 | 0.421 | 0.381 | 0.491 | 0.387 | 0.392 | 0.928 | 0.829 | 0.931 | 0.896 | 0.584
7 | NCI-H1944 | 0.331 | 0.386 | 0.349 | 0.344 | 0.336 | 0.303 | 0.302 | 0.345 | 0.241 | 0.221 | 0.251 | 0.226 | 0.267 | 0.218 | 0.171 | 1.18 | 1.18 | 1.1 | 0.918 | 0.596
8 | NCI-H1975 | 0.28 | 0.297 | 0.299 | 0.273 | 0.248 | 0.628 | 0.552 | 0.597 | 0.323 | 0.319 | 0.726 | 0.655 | 0.755 | 0.542 | 0.29 | 1.1 | 0.88 | 0.99 | 0.97 | 0.828
